Toxic doses and inconclusive results are not listed. Rule as the data show it: active = T/C of 150% or more; inactive = T/C below 125%.
Tested on: L1210 leukemia ip in BDF1 mice, survival T/C
Test: NCI In Vivo Anticancer Drug Screen. Data for tumor model L1210 Leukemia (intraperitoneal) in B6D2F1 (BDF1) mice
Conditions: endpoint: mean survival time, higher = longer survival
Summary of the method: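 In this screen, tumor-bearing mice given compound are compared to those given vehicle, and their survival values are reported as a treated-to-control quotient.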

[1] = dose: 100.0 mg/kg/injection, schedule: Q04DX003 (ip), vehicle: Klucel (hydroxypropylcellulose) (HPC)
[2] = dose: 200.0 mg/kg/injection, schedule: Q04DX003 (ip), vehicle: Klucel (hydroxypropylcellulose) (HPC)
[3] = dose: 400.0 mg/kg/injection, schedule: Q04DX003 (ip), vehicle: Klucel (hydroxypropylcellulose) (HPC)
[4] = dose: 100.0 mg/kg/injection, schedule: Q01DX001 (ip), vehicle: carboxymethylcellulose (CMC)
[5] = dose: 200.0 mg/kg/injection, schedule: Q01DX001 (ip), vehicle: carboxymethylcellulose (CMC)

Measured: T/C

CCCN(CCC)C(=O)CCN1CC1
inactive: dose: 5.0 mg/kg/injection, schedule: Q01DX001 (ip), vehicle: carboxymethylcellulose (CMC) 97 % of control | dose: 10.0 mg/kg/injection, schedule: Q01DX001 (ip), vehicle: carboxymethylcellulose (CMC) 100 % of control | dose: 20.0 mg/kg/injection, schedule: Q01DX001 (ip), vehicle: carboxymethylcellulose (CMC) 88 % of control | dose: 40.0 mg/kg/injection, schedule: Q01DX001 (ip), vehicle: carboxymethylcellulose (CMC) 103 % of control

CCOC(=O)/C(C#N)=C/c1cccn1Cc1cc2c(cc1[N+](=O)[O-])OCO2
inactive: dose: 25.0 mg/kg/injection, schedule: Q04DX002 (ip), vehicle: Klucel (hydroxypropylcellulose) (HPC) 104 % of control | dose: 50.0 mg/kg/injection, schedule: Q04DX002 (ip), vehicle: Klucel (hydroxypropylcellulose) (HPC) 100 % of control | dose: 100.0 mg/kg/injection, schedule: Q04DX002 (ip), vehicle: Klucel (hydroxypropylcellulose) (HPC) 100 % of control

O=C(C1C2CCC(C2)C1C(=O)N1CCCCC1)N1CCCCC1 (stereo not drawn)
inactive: dose: 100.0 mg/kg/injection, schedule: Q04DX003 (ip), vehicle: saline with Tween-80 100 % of control | dose: 200.0 mg/kg/injection, schedule: Q04DX003 (ip), vehicle: saline with Tween-80 100 % of control | dose: 400.0 mg/kg/injection, schedule: Q04DX003 (ip), vehicle: saline with Tween-80 100 % of control

Cn1ncc2[nH]c(=O)n(O)c(=O)c21
inactive: dose: 50.0 mg/kg/injection, schedule: Q01DX001 (ip), vehicle: saline 93 % of control | dose: 100.0 mg/kg/injection, schedule: Q01DX001 (ip), vehicle: saline 96 % of control | dose: 200.0 mg/kg/injection, schedule: Q01DX001 (ip), vehicle: saline 100 % of control | dose: 400.0 mg/kg/injection, schedule: Q01DX001 (ip), vehicle: saline 100 % of control

FC(F)(F)C(F)(F)C1=NS1(F)C(F)(C(F)(F)F)C(F)(F)F (stereo not drawn)
inactive: dose: 100.0 mg/kg/injection, schedule: Q01DX001 (ip), vehicle: acetone 100 % of control | dose: 200.0 mg/kg/injection, schedule: Q01DX001 (ip), vehicle: acetone 97 % of control | dose: 400.0 mg/kg/injection, schedule: Q01DX001 (ip), vehicle: acetone 97 % of control

CC1CC2NC(C)CC3NC(C)CC(N1)N32 (stereo not drawn)
inactive: [1] 106 % of control | [2] 97 % of control | [3] 111 % of control

COc1ccc(C=O)c(Br)c1O
inactive: dose: 100.0 mg/kg/injection, schedule: Q01DX009 (ip), vehicle: Klucel (hydroxypropylcellulose) (HPC) 103 % of control | [1] 104 % of control | dose: 200.0 mg/kg/injection, schedule: Q01DX009 (ip), vehicle: Klucel (hydroxypropylcellulose) (HPC) 97 % of control | [2] 103 % of control | dose: 400.0 mg/kg/injection, schedule: Q01DX009 (ip), vehicle: Klucel (hydroxypropylcellulose) (HPC) 97 % of control | [3] 101 % of control

CCCCCCCCCCCCCCCN(CCCl)CCCl
inactive: [4] 93 % of control | [5] 96 % of control

CCCCCCCCCCCCSCCOC(=O)C1C2CCC(O2)C1C(=O)O (stereo not drawn)
inactive: dose: 12.5 mg/kg/injection, schedule: Q04DX003 (ip), vehicle: Klucel (hydroxypropylcellulose) (HPC) 96 % of control | dose: 25.0 mg/kg/injection, schedule: Q04DX003 (ip), vehicle: Klucel (hydroxypropylcellulose) (HPC) 100 % of control | dose: 50.0 mg/kg/injection, schedule: Q04DX003 (ip), vehicle: Klucel (hydroxypropylcellulose) (HPC) 90 % of control

CCC(CCCN(CC)CCc1ccccc1)OC(=O)c1cc(OC)c(OC)c(OC)c1 (stereo not drawn)
inactive: dose: 4.68 mg/kg/injection, schedule: Q01DX009 (ip), vehicle: saline 106 % of control | dose: 9.37 mg/kg/injection, schedule: Q01DX009 (ip), vehicle: saline 100 % of control | dose: 18.75 mg/kg/injection, schedule: Q01DX009 (ip), vehicle: saline 100 % of control | dose: 18.75 mg/kg/injection, schedule: Q04DX003 (ip), vehicle: saline 118 % of control | dose: 37.5 mg/kg/injection, schedule: Q01DX009 (ip), vehicle: saline 100 % of control | dose: 37.5 mg/kg/injection, schedule: Q04DX003 (ip), vehicle: saline 97 % of control | dose: 75.0 mg/kg/injection, schedule: Q01DX009 (ip), vehicle: saline 95 % of control | dose: 75.0 mg/kg/injection, schedule: Q04DX003 (ip), vehicle: saline 103 % of control

O=C(CCc1ccncc1)c1ccccc1
inactive: dose: 50.0 mg/kg/injection, schedule: Q01DX001 (ip), vehicle: carboxymethylcellulose (CMC) 114 % of control | [4] 102 % of control | [5] 102 % of control | dose: 400.0 mg/kg/injection, schedule: Q01DX001 (ip), vehicle: carboxymethylcellulose (CMC) 102 % of control

From PubChem BioAssay AID248 (DTP/NCI, 2004)
